The results in this text go back to patent publication US20250011265A1, “COMPOSITIONS AND METHODS FOR PRODUCTION OF ANTIMICROBIAL AGENTS FROM BIO-RENEWABLE FEEDSTOCKS” (SOLUGEN, INC., priority 2022, published 2025).

SMILES strings stand for the structures. Converted amounts (≈) assume the structure as drawn.

The subject of test [1] is General Wild Strain Bacteria (Pseudomonas aeruginosa and Enterobacter aggolomerans). The test can be described thus: Microtiter MIC study, general aerobic bacteria. The class given is cell-based. How it is done: (§1) All three different heat incubated GDA samples were tested as antimicrobial agents with several different industrially relevant bacteria. The General Aerobic Bacteria isolated and used for this testing were identified as Pseudomonas aeruginosa and Enterobacter aggolomerans. Wild strain Sulfate Reducing Bacteria and Acid Producing Bacteria isolated from the produced fluids was also used. They were placed in a microtiter plate, where a high throughput test can be performed to determine MIC (minimum inhibitor concentration). Samples were tested at the following doses (1000, 500, 250, 125, 62.5, 31.2, 15.6, 7.8, 3.9, and 1.95 ppm) and concentration was calculated based on the initial GDA concentration (15 w/v %).
(§2) The antimicrobial testing results shown in FIG. 13 summarizes the MIC of each sample for different bacteria. The MIC is determined after 24 hours of incubation for the bacterial plates.

The test system of test [2] is APB (Acid Producing Bacteria). The test can be described thus: Microtiter MIC study, acid producing bacteria. In kind it is cell-based. Particulars: 24 hours incubation; concentration based on initial GDA concentration (15 w/v %). As for the experimental part:
as §1, §2

In test [3] the test system is SRB (Sulfate Reducing Bacteria). The test can be described thus: Microtiter MIC study, sulfate reducing bacteria. The class given is cell-based, Wild strain Sulfate Reducing Bacteria. Particulars: 24 hours incubation; concentration based on initial GDA concentration (15 w/v %). How it is done: as §1, §2

As for `Oc1ccc(O)c(O)c1O` (single isomer, unassigned) [1,2,3,4-tetrahydroxybenzene], the antimicrobial activity entry in test [1] (inferred from Sample C result, all three bacteria tested) is given as “good antimicrobial activity”.
In the case of `O=CCCCC=O` [Glutaraldehyde - 50%, Glutaraldehyde], the MIC in test [2] came out at 500 µg/mL (≈ 4.99 mM); in test [1] (Pseudomonas aeruginosa, 24 hours incubation, concentration based on initial GDA concentration (15 w/v %)), 1000 µg/mL (≈ 9.99 mM). Further, in test [3], the “MIC, SRB (Sulfate Reducing Bacteria)” value is 500 ppm.

The MIC is the lowest concentration that inhibits growth of the organism. A lower MIC goes with inhibition by little substance.
